Measured values from PMC7725003, “Systematically Studying the Optimal Amino Acid Distribution Patterns of the Amphiphilic Structure by Using the Ultrashort Amphiphiles” (Frontiers in Microbiology, 2020).
Where two headings read alike, the source gives them in different places. Where no end group is shown, it is not given here.

How the values were obtained:
S. epidermidis 12228 = format: cell-based, Staphylococcus epidermidis
Procedure, shortened: (§1)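 Using mid-log cultures at 0.5–1 × 10^6 CFU mL^–1 in MHB, peptides serially diluted in 0.2% BSA were tested over 24 h at 37°C. Inhibition of 95% (A492) set the MIC; >99.9% killing after overnight agar plating set the MBC.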

S. aureus 29213 [1] = assay: Salt sensitivity assay (MIC); format: cell-based, Staphylococcus aureus; settings: for MIC, FeCl3: 4 μM FeCl3; for MIC, NH4Cl: 6 μM NH4Cl; for MIC, ZnCl2: 8 μM ZnCl2; for MIC, MgCl2: 1 mM MgCl2; for MIC, CaCl2: 2 mM CaCl2; for MIC, KCl: 4.5 mM KCl; for MIC, NaCl: 150 mM NaCl; for MIC, Control: no added salt, three independent assays
Procedure, shortened: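 MICs determined by broth microdilution in MHB with 0.5–1 × 10^6 CFU/mL, peptides serially diluted in 0.2% BSA, 24 h at 37°C. Medium supplemented with physiological salts (150 mM NaCl, 4.5 mM KCl, 6 μM NH4Cl, 8 μM ZnCl2, 1 mM MgCl2, 2mM CaCl2, 4 μM FeCl3). MIC = lowest concentration inhibiting 95% growth (A492).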

MRSA 43300 = format: cell-based, methicillin-resistant S. aureus
Procedure, shortened: as §1

Gram-negative bacteria [2] = settings: geometric mean of MBCs, 9 Gram-negative strains (Table 2)
S. pullorum 7913 = format: cell-based, Salmonella pullorum
Procedure, shortened: as §1

E. coli K99 = settings: for MIC: MHB, 24 h 37°C, 95% growth inhibition; for MBC: value in brackets, >99.9% of cells killed
Method: (§2) The antimicrobial activities of the peptides were measured using a method adapted from the National Committee for Clinical Laboratory Standards (NCCLS) with some modifications ([Chou et al., 2016]). The specific procedure for these assays has been previously described. In brief, the bacterial cells were grown to a mid-logarithmic phase and diluted in MHB to an ultimate concentration of 0.5–1 × 10^6 CFU mL^–1. Subsequently, the peptides were consecutively diluted in a 0.2% BSA solution and then added to a bacterial solution in a 96-well plate at identical volumes. After incubation for 24 h at 37°C, the MICs were determined to be the lowest peptide concentration that inhibited 95% of the bacterial growth by monitoring the absorbance at 492 nm using a microplate reader. Subsequently, 50 μL of each incubation mixture was further transferred to agar plates and incubated overnight. […] Every assay was reproduced more than 3 times.

E. coli K88 = settings: for MIC: MHB, 24 h 37°C, 95% growth inhibition; for MBC: value in brackets, >99.9% of cells killed
Method: as §2

[3] = tested on: Listeria monocytogenes CGMCC 1.1075; format: cell-based
Procedure, shortened: as §1

[4] = tested on: all of the tested bacterial strains; assay: Geometric mean of MICs, all tested bacterial strains; format: cell-based; settings: for GM, All: geometric mean of MICs across all tested strains; for TI, All: therapeutic index TI = MHC/GM MIC
Procedure, shortened: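 Mid-log bacteria at 0.5–1 × 10^6 CFU mL^–1 in MHB with peptides serially diluted in 0.2% BSA, 24 h at 37°C. MIC is the lowest concentration giving 95% growth inhibition by A492. MBC is the lowest giving >99.9% kill on agar subculture, and the GM is taken over all strains.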

B. subtilis 63501 = format: cell-based, Bacillus subtilis
Procedure, shortened: as §1

Gram-positive bacteria [5] = settings: geometric mean of MBCs, 7 Gram-positive strains (Table 2)
P. aeruginosa 27853 = format: cell-based, Pseudomonas aeruginosa
Procedure, shortened: as §1

S. aureus 29213 [6] = format: cell-based, Staphylococcus aureus
Procedure, shortened: as §1

S. aureus 25923 = format: cell-based, Staphylococcus aureus
Procedure, shortened: as §1

E. coli UB1005 = format: cell-based, Escherichia coli
Procedure, shortened: as §1

E. coli O78 = format: cell-based, Escherichia coli
Procedure, shortened: as §1

E. coli 25922 = format: cell-based, Escherichia coli
Procedure, shortened: as §1

E. coli ATCC 25922 = assay: Salt sensitivity assay (MIC); format: cell-based, Escherichia coli; settings: for MIC, FeCl3: 4 μM FeCl3; for MIC, NH4Cl: 6 μM NH4Cl; for MIC, ZnCl2: 8 μM ZnCl2; for MIC, MgCl2: 1 mM MgCl2; for MIC, CaCl2: 2 mM CaCl2; for MIC, KCl: 4.5 mM KCl; for MIC, NaCl: 150 mM NaCl; for MIC, Control: no added salt, three independent assays
Procedure, shortened: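 The salt sensitivity of peptides was tested against E. coli ATCC 25922 using a modified NCCLS broth microdilution MIC method. Mid-log bacteria were diluted in MHB to 0.5–1 × 10^6 CFU mL^–1 and mixed in equal volumes with peptides serially diluted in 0.2% BSA in 96-well plates. Physiological salt was added where specified, and the assay was done three independent times.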

S. typhimurium 14028 = format: cell-based, Salmonella typhimurium
Procedure, shortened: as §1

S. typhimurium 7731 = format: cell-based, Salmonella typhimurium
Procedure, shortened: as §1

Gram-negative bacteria [7] = settings: for GM MIC: geometric mean of MICs, 9 Gram-negative strains (Table 2); for TI, Gram-negative bacteria: therapeutic index TI = MHC/GM MIC
Procedure, shortened: (§3)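 Broth microdilution adapted from NCCLS: mid-log bacteria diluted in MHB to 0.5–1 × 10^6 CFU mL^–1, mixed with peptides serially diluted in 0.2% BSA. After 24 h at 37°C, MIC taken as the lowest concentration inhibiting 95% of growth by absorbance at 492 nm. Assays repeated more than 3 times.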

Gram-positive bacteria [8] = settings: for GM MIC: geometric mean of MICs, 7 Gram-positive strains (Table 2); for TI, Gram-positive bacteria: therapeutic index TI = MHC/GM MIC
Procedure, shortened: as §3

E. faecalis 29212 = format: cell-based, Enterococcus faecalis
Procedure, shortened: as §1

[9] = MHB, 24 h 37°C, 95% growth inhibition
[10] = value in brackets, >99.9% of cells killed

LRRRLLLLR-NH2 [L6]
32 µM: MIC (B. subtilis 63501; 63501, 24 h)
128.00 µM: GM MBC (Gram-negative bacteria [2])
2.48: TI, All [4]
2.52: TI, Gram-negative bacteria (Gram-negative bacteria [7])
101.59 µM: GM MIC (Gram-negative bacteria [7])
115.93 µM: GM MBC (Gram-positive bacteria [5])
128 µM: MBC (E. coli K99) | MBC (E. coli K88) | MBC (E. coli O78; O78, 24 h)
103.07 µM: GM, All [4]
2.44: TI, Gram-positive bacteria (Gram-positive bacteria [8])
64 µM: MIC (E. coli K99) | MIC (E. coli K88) | MBC (B. subtilis 63501; 63501, 24 h) | MIC (E. coli O78; O78, 24 h)
> 64 µM: MIC (S. epidermidis 12228; 12228, 24 h) | MIC, FeCl3 (S. aureus 29213 [1]) | MIC, NH4Cl (S. aureus 29213 [1]) | MIC, ZnCl2 (S. aureus 29213 [1]) | MIC, MgCl2 (S. aureus 29213 [1]) | MIC, CaCl2 (S. aureus 29213 [1]) | MIC, KCl (S. aureus 29213 [1]) | MIC, NaCl (S. aureus 29213 [1]) | MIC, Control (S. aureus 29213 [1]) | MIC (P. aeruginosa 27853; 27853, 24 h) | MIC (S. aureus 25923; 25923, 24 h) | MIC (E. coli 25922; 25922, 24 h) | MIC, FeCl3 (E. coli ATCC 25922) | MIC, NH4Cl (E. coli ATCC 25922) | MIC, ZnCl2 (E. coli ATCC 25922) | MIC, MgCl2 (E. coli ATCC 25922) | MIC, CaCl2 (E. coli ATCC 25922) | MIC, KCl (E. coli ATCC 25922) | MIC, NaCl (E. coli ATCC 25922) | MIC, Control (E. coli ATCC 25922) | MIC (S. typhimurium 14028; 14028, 24 h) | MIC (S. typhimurium 7731; 7731, 24 h) | MIC (E. faecalis 29212; 29212, 24 h)
>64 µM: MIC (MRSA 43300; 43300, 24 h) | MIC (S. pullorum 7913; 7913, 24 h) | MIC ([3]; CGMCC 1.1075, 24 h) | MIC (S. aureus 29213 [6]; 29213, 24 h) | MIC (E. coli UB1005; UB1005, 24 h)
105.00 µM: GM MIC (Gram-positive bacteria [8])

LLLRRRRLL-NH2 [L4]
128.00 µM: GM, Gram-negative bacteria (Gram-negative bacteria [7]; geometric mean of MICs (Table 3))
107.63 µM: GM, All [4]
128 µM: GM MBC (Gram-negative bacteria [2]) | GM MIC (Gram-negative bacteria [7])
2.00: TI, Gram-negative bacteria (Gram-negative bacteria [7])
95.10 µM: GM MBC (Gram-positive bacteria [5])
2.38: TI, All [4]
2.97: TI, Gram-positive bacteria (Gram-positive bacteria [8])
> 64 µM: MIC (S. epidermidis 12228; 12228, 24 h) | MIC, FeCl3 (S. aureus 29213 [1]) | MIC, NH4Cl (S. aureus 29213 [1]) | MIC, ZnCl2 (S. aureus 29213 [1]) | MIC, MgCl2 (S. aureus 29213 [1]) | MIC, CaCl2 (S. aureus 29213 [1]) | MIC, KCl (S. aureus 29213 [1]) | MIC, NaCl (S. aureus 29213 [1]) | MIC, Control (S. aureus 29213 [1]) | MIC (E. coli K99) | MIC (P. aeruginosa 27853; 27853, 24 h) | MIC (S. aureus 25923; 25923, 24 h) | MIC (E. coli 25922; 25922, 24 h) | MIC, FeCl3 (E. coli ATCC 25922) | MIC, NH4Cl (E. coli ATCC 25922) | MIC, ZnCl2 (E. coli ATCC 25922) | MIC, MgCl2 (E. coli ATCC 25922) | MIC, CaCl2 (E. coli ATCC 25922) | MIC, KCl (E. coli ATCC 25922) | MIC, NaCl (E. coli ATCC 25922) | MIC, Control (E. coli ATCC 25922) | MIC (S. typhimurium 14028; 14028, 24 h) | MIC (S. typhimurium 7731; 7731, 24 h) | MIC (E. faecalis 29212; 29212, 24 h)
86.14 µM: GM MIC (Gram-positive bacteria [8])
16 µM: MBC (B. subtilis 63501; 63501, 24 h)
8 µM: MIC (B. subtilis 63501; 63501, 24 h)
>64 µM: MIC (MRSA 43300; 43300, 24 h) | MIC (S. pullorum 7913; 7913, 24 h) | MIC (E. coli K88) | MIC ([3]; CGMCC 1.1075, 24 h) | MIC (S. aureus 29213 [6]; 29213, 24 h) | MIC (E. coli UB1005; UB1005, 24 h) | MIC (E. coli O78; O78, 24 h)

Polymyxin B [reference compound]
4.42 µM: GM MIC (Gram-positive bacteria [8])
4 µM: MBC (S. epidermidis 12228; [10]) | MBC (MRSA 43300; [10]) | MIC (S. pullorum 7913; [9]) | MBC (E. coli K99) | MBC (E. coli K88) | MIC (S. aureus 29213 [6]; [9]) | MBC (S. aureus 25923; [10]) | MBC (E. coli UB1005; [10]) | MBC (E. coli O78; [10]) | MIC (E. coli 25922; MHB, 0.5–1 × 10^6 CFU/mL, 24 h 37°C, lowest concentration inhibiting 95% of growth (A492), more than 3 repeats) | MIC, FeCl3 (E. coli ATCC 25922) | MIC, NH4Cl (E. coli ATCC 25922) | MIC, ZnCl2 (E. coli ATCC 25922) | MIC, MgCl2 (E. coli ATCC 25922) | MIC, Control (E. coli ATCC 25922) | MIC (S. typhimurium 14028; [9]) | MBC (S. typhimurium 7731; [10])
2.94 µM: GM MIC (Gram-negative bacteria [7])
10.77 µM: GM MBC (Gram-positive bacteria [5])
16 µM: MIC, FeCl3 (S. aureus 29213 [1]) | MIC, NH4Cl (S. aureus 29213 [1]) | MIC, ZnCl2 (S. aureus 29213 [1]) | MIC, MgCl2 (S. aureus 29213 [1]) | MIC, KCl (S. aureus 29213 [1]) | MIC, Control (S. aureus 29213 [1]) | MBC (P. aeruginosa 27853; [10])
8 µM: MBC (S. pullorum 7913; [10]) | MIC (P. aeruginosa 27853; [9]) | MBC (S. aureus 29213 [6]; [10]) | MBC (E. coli 25922; value in brackets, agar plating, lowest concentration killing >99.9% of cells) | MIC, CaCl2 (E. coli ATCC 25922) | MIC, KCl (E. coli ATCC 25922) | MIC, NaCl (E. coli ATCC 25922) | MBC (S. typhimurium 14028; [10])
32 µM: MIC, NaCl (S. aureus 29213 [1]) | MIC [3, 9] | MIC (E. faecalis 29212; [9])
> 64 µM: MBC [3, 10] | MBC (E. faecalis 29212; [10])
64 µM: MIC, CaCl2 (S. aureus 29213 [1])
2 µM: MIC (S. epidermidis 12228; [9]) | MIC (MRSA 43300; [9]) | MIC (E. coli K99) | MIC (E. coli K88) | MBC (B. subtilis 63501; [10]) | MIC (S. aureus 25923; [9]) | MIC (E. coli UB1005; [9]) | MIC (E. coli O78; [9]) | MIC (S. typhimurium 7731; [9])
1 µM: MIC (B. subtilis 63501; [9])
5.88 µM: GM MBC (Gram-negative bacteria [2])
